Data published in US20110195030A1, “NANOPARTICLE COMPOSITIONS COMPRISING LIQUID OIL CORES” (The University of North Carolina at Chapel Hill, priority 2008, published 2011).
In brackets after ≈: the same amount, converted by molar mass.

Experiments:
[1] = In-vitro release of paclitaxel by dialysis method; format: physicochemical; details: 37° C., PBS with 0.1% Tween 80
Procedure: PX release studies (n=4) were completed at 37° C. by the dialysis method using PBS with 0.1% Tween 80 as release medium. Before release studies, the solubility of PX in release medium was measured. Briefly, extra amounts of paclitaxel were added into 2 mL of release medium until saturation was attained. After centrifuge, the concentration of PX in the supernatant was determined by HPLC as described above. For release studies, one milliliter (1 mL) of PX G78 NPs was purified with a Microcon Y-100 and re-suspended into 1 mL D.I. water. The concentration of PX in re-suspended PX G78 NPs was measured by HPLC as described above. Eight hundred microliters of purified PX G78 NPs, PX BTM NPs and reconstituted lyo BTM NPs were placed into a regenerated cellulose dialysis membrane (MWCO 8000 Da) submerged in 40 mL PBS with 0.1% Tween 80, respectively, and then shaken in a water bath at a speed of 150 rpm at 37° C. Free PX also was used as a control. At predetermined times, 200 μL aliquots were taken from outside of the dialysis membrane, and replaced with 200 μL fresh media. PX was measured by HPLC as described above. Mass balance was confirmed by measuring PX concentration inside the dialysis membranes after 72 h. In addition, the particle sizes of PX NPs inside the dialysis membranes were measured when release studies were terminated (at 72 h).

[2] = reported in literature; cited from earlier work
Solubility of paclitaxel = format: physicochemical; details: PBS with 0.1% Tween 80 (release medium), aqueous with cosolvent or surfactant or cyclodextrin, thermodynamic from solid; PBS with 0.1% Tween 80, room temperature, mean ± SD, n = 3

In the case of `CC(=O)O[C@H]1C(=O)[C@@]2(C)[C@H]([C@H](OC(=O)c3ccccc3)[C@]3(O)C[C@H](OC(=O)[C@H](O)[C@@H](NC(=O)c4ccccc4)c4ccccc4)C(C)=C1C3(C)C)[C@]1(OC(C)=O)CO[C@@H]1C[C@@H]2O` [Paclitaxel], the “time to complete release” value [1] is given as at most 4 h, the aqueous solubility [2] is given as 0.7 to 30 µg/mL and the solubility (Solubility of paclitaxel) is given as 10.8 ± 0.3 µg/mL (≈ 12.6 µM).
